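All cell lines were grown in 96-well plates and treated with compound for 48 hours. Abbreviation: GI50, concentration required for 50% inhibition of growth. At the TGI there is no net growth.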
The compounds below were run on MDA-MB-468 breast (assay: growth of human tumour cells (NCI), 48 h).
Work on `CCCCCCCCCCCCCCCCOP(=O)([O-])OCC[N+](C)(C)C` yielded a GI50 of 1160 nM and a TGI of 3560 nM.
With `O=C(CI)Nc1ccc(O)c2ccccc12` the GI50 was 900 nM and the TGI was 2570 nM.
`O=CN1N=C(c2cccc(Nc3ccnc4cc(Cl)ccc34)c2)CC1c1ccccc1` (centres undefined) was tested, and the GI50 was 205 nM and the TGI was 656 nM.
With `Cn1c(-c2ccccc2)c(/C=C/C2=[N+](C)c3ccccc3C2(C)C)c2ccccc21` the GI50 was 343 nM and the TGI was 2850 nM.
Work on `NC(N)=NC(N)=NCCCc1ccco1` yielded a GI50 of 81800 nM and a TGI of 196000 nM.
`COc1ccc(NC(=O)c2sc3nc(C)c(C(=O)/C=C/c4cccc(OC)c4)cc3c2N)cc1` showed a GI50 of 732 nM and a TGI of 2240 nM.
With `O=C1C(=O)c2ccccc2C(O)=C1CCCc1ccc(C2CCCCC2)cc1` the GI50 was 2200 nM and the TGI was 21500 nM.
Compound `CC(=O)O[C@H]1C(=O)[C@@]2(C)[C@H]([C@H](OC(=O)c3ccccc3)[C@]3(O)C[C@H](OC(=O)[C@H](OC(=O)OC[C@H]4COC(C)(C)O4)[C@@H](NC(=O)c4ccccc4)c4ccccc4)C(C)=C1C3(C)C)[C@]1(OC(C)=O)CO[C@@H]1C[C@@H]2O` has a GI50 of 27.3 nM.
With `COC(=O)Nc1nc2ccc(C(=O)c3ccccc3)cc2[nH]1` the GI50 was 338 nM and the TGI was over 100000 nM.
Work on `Clc1ccc2nc(CI)c(CI)nc2c1` yielded a GI50 of 4700 nM and a TGI of 19100 nM.
`C=C1SC(=Nc2ccccc2Cl)N(C(=O)c2sc3ccccc3c2Cl)C12CCCCC2` showed a GI50 of 4910 nM and a TGI of over 100000 nM.
In the case of `COC1=CC(c2ccc[nH]2)=N/C1=C\c1[nH]c(C)c(CC(=O)OCc2ccccc2)c1C`, the GI50 is reported as 595 nM and the TGI is reported as 2450 nM.
For `CN(C)CCCC1(c2ccc(F)cc2)OCc2cc(-c3cc4ccccc4s3)ccc21` (centres undefined), the GI50 was 1740 nM and the TGI was 3410 nM.
For `C=C1C(=O)O[C@H]2[C@H]1CC/C(COC(=O)OC/C1=C/CC[C@@]3(C)O[C@H]3[C@H]3OC(=O)[C@@H](CN(C)C)[C@@H]3CC1)=C\CC[C@@]1(C)O[C@@H]21`, the GI50 was 1350 nM and the TGI was 4000 nM.
`CCCCCCCC(=O)SCC/C=C/[C@@H]1CC(=O)NCc2nc(cs2)C2=N[C@@](C)(CS2)C(=O)N[C@@H](C(C)C)C(=O)N1` gave a GI50 of under 11.9 nM and a TGI of 1210 nM.
`C=C1C(=O)O[C@H]2[C@H]1CC/C(COC(=O)CCCc1c[nH]c3ccccc13)=C\CC[C@@]1(C)O[C@@H]21` gave a GI50 of 1760 nM and a TGI of 4010 nM.
In the case of `Cc1cc(OCCOCCC(F)(F)P(=O)(O)O)ccc1CCc1cnc2c(N)nc3cc(CCC(=O)O)ccc3c2c1`, the GI50 is reported as over 100000 nM and the TGI is reported as over 100000 nM.
With `Cn1ccnc1C(=O)/C=C/c1ccc(CNC(=O)c2ccc(S(F)(F)(F)(F)F)cc2)cc1` the GI50 was 3540 nM and the TGI was 8710 nM.
Work on `O=C(Nc1ccc(F)cc1)Nc1ccc(Br)c(C(F)(F)F)c1` yielded a GI50 of 2220 nM and a TGI of 9540 nM.
Work on `COc1ccc(/C=C2\SC(=Nc3ccccc3)NC2=O)cc1` yielded a GI50 of 3180 nM and a TGI of 22000 nM.
`Nc1nc2cc(CC[C@H]3C[C@@H](n4ccc5c(N)ncnc54)[C@H](O)[C@@H]3O)ccc2cc1Br` was tested, and the GI50 was 234 nM and the TGI was 7980 nM.
With `CC([C@H]1CC=C2C3CCC4=C[C@@H](N(C)C)CC[C@]4(C)C3CC[C@@]21C)N(C)C` (some centres undefined) the GI50 was 1420 nM and the TGI was 4720 nM.
In the case of `COc1ccc(/C(C#N)=C/c2cc(OC)c(OC)c(OC)c2)cc1`, the GI50 is reported as 19200 nM and the TGI is reported as over 100000 nM.
For `C[n+]1c2ccccc2nc2ccccc21`, the GI50 was 711 nM and the TGI was 2690 nM.
With `C=C1C(=O)O[C@H]2[C@H]1CC/C(Cn1cc(-c3ccc(F)cc3)nn1)=C\CC[C@@]1(C)O[C@@H]21` the GI50 was 421 nM and the TGI was 1580 nM.
`Cc1ccc2c(c1)C(=O)c1c-2c(OCCCN(C)C)nc2ccccc12` showed a GI50 of 1430 nM and a TGI of 3350 nM.
`C[C@H]1COCCN1c1cc(C2(S(=O)(=O)C3CC3)CC2)nc(-c2ccc(NC(=S)NCCO)cc2)n1` showed a GI50 of under 10.8 nM and a TGI of 93.6 nM.
`C[C@H]1CNC(=O)c2cnn3ccc(nc23)N[C@H](C)c2cc(F)ccc2O1` was tested, and the GI50 was 1850 nM and the TGI was 14600 nM.
Compound `C[C@]12CC[C@H]3[C@@H](CC4SC(N)=NC45C/C(=N/NC(N)=O)CC[C@]35C)[C@@H]1CCC2=O` (some centres undefined) has a GI50 of 1600 nM and a TGI of 3170 nM.
`CCCCCCCCCCCCCC[n+]1ccc(C(N)=O)cc1` was tested, and the GI50 was 401 nM and the TGI was 2760 nM.
For `Cn1nc(C(F)(F)F)c(-c2cc(C(F)(F)F)cc(C(F)(F)F)c2)c1-c1ccc(OCc2ccc(Cl)cc2)cc1O`, the GI50 was 1430 nM and the TGI was 6360 nM.
Compound `COC(=O)c1c2c(c(C)[n+]([O-])c1C)C(=O)C=C(NCc1cccc(Cl)c1)C2=O` has a GI50 of 225 nM and a TGI of 732 nM.
For `CC(C)=CC(=O)N[C@H]1CC[C@]2(C)C3CC[C@]4(C)C(C(C)N(C)C)=CCC4C3CCC2[C@H]1O` (some centres undefined), the GI50 was 1650 nM and the TGI was 6330 nM.
`O=C(/C=C1\C(=O)N(Cc2ccccc2)c2ccccc21)c1ccc(OCCN2CCCCC2)cc1` showed a GI50 of 1920 nM and a TGI of 3800 nM.
For `N#C/C(=N\Nc1ccccc1)C(=O)Nc1cc(-c2ccccc2)nn1-c1ccccc1`, the GI50 was 1420 nM and the TGI was 5880 nM.

Source: PubChem BioAssay (NCI)
